Results published in patent US8378104B2 (OSI Pharmaceuticals, LLC, priority 2010, dated 2013).
pIC50: −log10 of the molar value. Counter-ions that a name gives are not always drawn.

Legend:
TAK1-TAB1 fusion protein = molecular target: T1, TAK1-TAB1 fusion protein (Homo sapiens, UniProt O43318); assay: TAK1 biochemical assay (AlphaScreen, GST-MAP2K7 substrate); details: TAK1-TAB1 fusion protein, GST-MAP2K7 substrate; read-out: mean TAK1 IC50 (Col. A)
T1 construct: purchased Carna
T1 sequence (O43318 with tags, fused parts or gaps limits assumed): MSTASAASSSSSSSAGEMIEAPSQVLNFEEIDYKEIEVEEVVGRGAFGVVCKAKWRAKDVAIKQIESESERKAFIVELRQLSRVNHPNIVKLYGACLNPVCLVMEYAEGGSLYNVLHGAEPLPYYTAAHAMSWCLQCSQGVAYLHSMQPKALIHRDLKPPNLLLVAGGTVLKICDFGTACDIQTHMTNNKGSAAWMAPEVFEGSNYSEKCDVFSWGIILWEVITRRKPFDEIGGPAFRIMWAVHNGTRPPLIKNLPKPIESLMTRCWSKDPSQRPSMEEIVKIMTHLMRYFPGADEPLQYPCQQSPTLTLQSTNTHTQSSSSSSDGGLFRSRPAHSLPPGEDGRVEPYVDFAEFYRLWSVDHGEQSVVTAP

pJNK in HCT-116 cells = assay: Phospho-JNK (Thr183/Tyr185) Meso Scale ELISA assay, TNFα-stimulated HCT-116 cells; format: cell-based; details: Homo sapiens, read-out: mean HCT-116 pJNK ELISA IC50 (Col. B)
Description: Detailed below are ELISA assays for pJNK and p38, and a TAK1 biochemical assay. […] In Table 1, Col.
Phospho-JNK (Thr183/Tyr185) Meso Scale ELISA Assay
• 1. Plate HCT-116 cells at 25,000 per well in 100 uL in 96 well clear dishes in normal growth medium. Day 2: • 1. Aspirate medium and replace with 90 μl reduced serum growth medium (1% FCS), incubate for 2 hours at 37° C. • 2. Make drugs at 10× in reduced serum medium and add 10 uL per well. • 3. Incubate at 37° C. for 4 hrs. • 4. Bring capture plates to room temperature. • 5. Block with 150 μl Blocking Solution (provided with kit) (600 mg Blocker A into 20 mL 1× Wash Buffer per plate) at room temperature with shaking. • 6. Wash plates 4× with 200 μl 1× wash buffer (10× provided with kit) before transferring lysates. • 7. Dilute TNFα to […] in reduced serum medium (this makes a 10× working stock). • 8. Add 10 μl TNFα to all wells except negative control wells, final concentration is 10 ng/mL. • 9. Incubate at 37° C. for 10 minutes. • 10. Remove medium by flicking into sink • 11. Wash cells with 100 uL ice cold PBS. • 12. Remove PBS by flicking into sink and patting on paper towels. • 13. Lyse cells in 50 μl ice cold 1× Complete Lysis Buffer plus Phosphatase and Protease inhibitors (all provided with kit) (10 mL Tris Lysis Buffer+200 μl Protease inhibitor solution+100 μl Phosphatase inhibitor I+100 μl Phosphatase inhibitor II). • 14. Incubate with shaking at 4° C. for 30 minutes. • 15. Transfer 45 μl to capture plate, cover with adhesive cover, and incubate at 4° C. over night with shaking. • Day 3: • 1. Wash plates 4× with 200 μl 1× wash buffer (10× provided with kit). • 2. […] Incubate at room temperature with shaking for 1 hour. • 4. Wash 4× with 200 μl 1× Wash Buffer. • 5. […] Read on Sector Imager. Phospho-p38 Meso Scale ELISA Assay Day 1: • 1. Plate HCT-116 cells at 25,000 per well in 100 uL in 96 well clear dishes in normal growth medium. zday 2: • 1. Aspirate medium and replace with 90 μl reduced serum growth medium (1% FCS), incubate for 2 hours at 37° C. • 2. Make drugs at 10× in reduced serum medium and add 10 uL per well. • 3. Incubate at 37° C. for 4 hrs. • 4. Bring capture plates to room temperature. • 5. Block with 150 μl Blocking Solution (provided with kit) (600 mg Blocker A into 20 mL 1× Wash Buffer per plate) at room temperature with shaking. • 6. Wash plates 4× with 200 μl 1× wash buffer (10× provided with kit) before transferring lysates. • 7. Dilute TNFα to […] in reduced serum medium (this makes a 10× working stock). • 8. Add 10 μl TNFα to all wells except negative control wells, final concentration is 10 ng/mL. • 9. Incubate at 37° C. for 10 minutes. • 10. Remove medium by flicking into sink • 11. Wash cells with 100 uL ice cold PBS. • 12. Remove PBS by flicking into sink and patting on paper towels. • 13. Lyse cells in 50 μl ice cold 1× Complete Lysis Buffer plus phosphatase and protease inhibitors (all provided with kit) (10 mL Tris Lysis Buffer+200 μl Protease inhibitor solution+100 μl Phosphatase inhibitor I+100 μl Phosphatase inhibitor II). • 14. Incubate with shaking at 4° C. for 30 minutes. • 15. Dilute lysates before transferring to capture plate with 100 μl Complete p38 Lysate • Dilution Buffer (provided with kit) (10 mL of Diluent 20±200 μl Protease inhibitor solution+100 μl Phosphatase inhibitor I+100 μl Phosphatase inhibitor II). • 16. Transfer 50 μl of diluted lysates to capture plate, cover with adhesive cover, and incubate at 4° C. over night with shaking. Day 3: • 1. Wash plates 4× with 200 μl 1× wash buffer (10× provided with kit). • 2. […] Incubate at room temperature with shaking for 1 hour. • 4. Wash 4× with 200 μl 1× Wash Buffer. • 5. […] Read on Sector Imager. TAK1 Biochemical Assay

SMILES: Nc1ncc(-c2cnn([C@H]3CC[C@H](O)CC3)c2)c2cc(-c3ccccc3)oc12 [Example 368, trans-4-[4-(7-amino-2-phenylfuro[2,3-c]pyridin-4-yl)-1H-pyrazol-1-yl]cyclohexanol]
- pIC50 (TAK1-TAB1 fusion protein): 6.00 to 7.00
- pIC50 (pJNK in HCT-116 cells): 6.00 to 7.00

SMILES: Nc1ncc(-c2cnn(C3CCN(C(=O)NCC4CCCCC4)CC3)c2)c2cc(-c3cccc4cnsc34)oc12 [Example 341, 4-[4-(7-amino-2-benzo[d]isothiazol-7-yl-furo[2,3-c]pyridin-4-yl)-pyrazol-1-yl]-piperidine-1-carboxylic acid cyclohexylmethyl-amide]
- pIC50 (TAK1-TAB1 fusion protein): 6.00 to 7.00
- pIC50 (pJNK in HCT-116 cells): > 7.00

SMILES: CC(=O)N1CCC(n2cc(-c3cnc(N)c4oc(-c5csc6c(F)nccc56)cc34)cn2)CC1 [Example 256, 1-(4-{4-[7-amino-2-(7-fluorothieno[2,3-c]pyridin-3-yl)furo[2,3-c]pyridin-4-yl]-1H-pyrazol-1-yl}piperidin-1-yl)ethanone trifluoroacetic acid salt]
- pIC50 (TAK1-TAB1 fusion protein): 6.00 to 7.00
- pIC50 (pJNK in HCT-116 cells): 6.00 to 7.00

SMILES: CC(=O)N1CCC(n2cc(-c3cnc(N)c4oc(-c5cccc6sncc56)cc34)cn2)CC1 [Example 241, 1-(4-{4-[7-amino-2-(1,2-benzothiazol-4-yl)furo[2,3-c]pyridin-4-yl]-1H-pyrazol-1-yl}piperidin-1-yl)ethanone diformate Salt]
- pIC50 (TAK1-TAB1 fusion protein): > 7.00
- pIC50 (pJNK in HCT-116 cells): > 7.00

SMILES: Nc1ncc(-c2cnn(C3CCN(C(=O)Nc4cccc5c4CCCC5)CC3)c2)c2cc(-c3cccc4cnsc34)oc12 [Example 340, 4-[4-(7-amino-2-benzo[d]isothiazol-7-yl-furo[2,3-c]pyridin-4-yl)-pyrazol-1-yl]-piperidine-1-carboxylic acid (5,6,7,8-tetrahydro-naphthalen-1-yl)-amide]
- pIC50 (TAK1-TAB1 fusion protein): 6.00 to 7.00
- pIC50 (pJNK in HCT-116 cells): 6.00 to 7.00

SMILES: CC(=O)N1CCC(n2cc(-c3cnc(N)c4oc(-c5cn(C)c6cnccc56)cc34)cn2)CC1 [Example 266, 1-(4-{4-[7-amino-2-(1-methyl-1H-pyrrolo[2,3-c]pyridin-3-yl)-furo[2,3-c]pyridin-4-yl]-pyrazol-1-yl}-piperidin-1-yl)-ethanone]
- pIC50 (TAK1-TAB1 fusion protein): > 7.00
- pIC50 (pJNK in HCT-116 cells): 6.00 to 7.00

SMILES: COCc1nc2cccc(-c3cc4c(-c5cnn(C6CCN(C(C)=O)CC6)c5)cnc(N)c4o3)c2s1 [Example 348, 1-[4-(4-{7-amino-2-[2-(methoxymethyl)-1,3-benzothiazol-7-yl]furo[2,3-c]pyridin-4-yl}-1H-pyrazol-1-yl)piperidin-1-yl]ethanone trifluoroacetate]
- pIC50 (TAK1-TAB1 fusion protein): > 7.00
- pIC50 (pJNK in HCT-116 cells): > 7.00

SMILES: CC(C)(O)C#Cc1sc2cnccc2c1-c1cc2c(-c3cnn([C@H]4CC[C@H](O)CC4)c3)cnc(N)c2o1 [Example 271, trans-4-(4-{7-amino-2-[2-(3-hydroxy-3-methylbut-1-yn-1-yl)thieno[2,3-c]pyridin-3-yl]furo[2,3-c]pyridin-4-yl}-1H-pyrazol-1-yl)cyclohexanol trifluoroacetate]
- pIC50 (TAK1-TAB1 fusion protein): 6.00 to 7.00
- pIC50 (pJNK in HCT-116 cells): 5.00 to 6.00

SMILES: Nc1ncc(-c2cnn([C@H]3CC[C@H](O)CC3)c2)c2cc(-c3cccc4cnncc34)oc12 [Example 366, trans-4-{4-[7-amino-2-(phthalazin-5-yl)furo[2,3-c]pyridin-4-yl]-1H-pyrazol-1-yl}cyclohexanol]
- pIC50 (TAK1-TAB1 fusion protein): > 7.00
- pIC50 (pJNK in HCT-116 cells): > 7.00

SMILES: CC(C)(C)OC(=O)N1[C@@H]2CC[C@H]1C[C@H](n1cc(-c3cnc(N)c4oc(-c5cccc6cnsc56)cc34)cn1)C2 [Example 301, tert-butyl (3-exo)-3-{4-[7-amino-2-(1,2-benzisothiazol-7-yl)furo[2,3-c]pyridin-4-yl]-1H-pyrazol-1-yl}-8-azabicyclo[3.2.1]octane-8-carboxylate]
- pIC50 (TAK1-TAB1 fusion protein): 6.00 to 7.00
- pIC50 (pJNK in HCT-116 cells): 6.00 to 7.00

SMILES: CN1[C@@H]2CC[C@H]1C[C@H](n1cc(-c3cnc(N)c4oc(-c5cccc6cnsc56)cc34)cn1)C2 [Example 330, 2-(1,2-benziso-thiazol-7-yl)-4-{1-[(3-exo)-8-methyl-8-azabicyclo[3.2.1]oct-3-yl]-1H-pyrazol-4-yl}furo[2,3-c]pyridin-7-amine]
- pIC50 (TAK1-TAB1 fusion protein): > 7.00
- pIC50 (pJNK in HCT-116 cells): 6.00 to 7.00

SMILES: Nc1ncc(-c2cnn(C3CCN(C(=O)CCc4ccccc4)CC3)c2)c2cc(-c3csc4cnccc34)oc12 [Example 331, 1-{4-[4-(7-amino-2-thieno[2,3-c]pyridin-3-yl-furo[2,3-c]pyridin-4-yl)-pyrazol-1-yl]-piperidin-1-yl}-3-phenyl-propan-1-one]
- pIC50 (TAK1-TAB1 fusion protein): 6.00 to 7.00
- pIC50 (pJNK in HCT-116 cells): 6.00 to 7.00

SMILES: Nc1ncc(-c2cnn([C@H]3CC[C@H](O)CC3)c2)c2cc(-c3csc4cnncc34)oc12 [Example 268, trans-4-{4-[7-amino-2-(thieno[2,3-d]pyridazin-3-yl)furo[2,3-c]-pyridin-4-yl]-1H-pyrazol-1-yl}cyclohexanol bistrifluoroacetate]
- pIC50 (TAK1-TAB1 fusion protein): > 7.00
- pIC50 (pJNK in HCT-116 cells): > 7.00

SMILES: Nc1ncc(-c2cnn(C3CCN(C(=O)C4CC4)CC3)c2)c2cc(-c3csc4cnccc34)oc12 [Example 228, (4-{4-[7-amino-2-(thieno[2,3-c]pyridin-3-yl)furo[2,3-c]pyridin-4-yl]-1H-pyrazol-1-yl}piperidin-1-yl)(cyclopropyl)methanone diformate salt]
- pIC50 (TAK1-TAB1 fusion protein): > 7.00
- pIC50 (pJNK in HCT-116 cells): > 7.00

SMILES: Nc1ncc(-c2cnn([C@H]3CC[C@H](O)CC3)c2)c2c(Cl)c(-c3csc4cnccc34)oc12 [Example 287, trans-4-{4-[7-amino-3-chloro-2-(thieno[2,3-c]pyridin-3-yl)furo[2,3-c]pyridin-4-yl]-1H-pyrazol-1-yl}cyclohexanol]
- pIC50 (TAK1-TAB1 fusion protein): 6.00 to 7.00
- pIC50 (pJNK in HCT-116 cells): > 7.00

SMILES: CC(C)CNC(=O)N1CCC(n2cc(-c3cnc(N)c4oc(-c5cccc6cnsc56)cc34)cn2)CC1 [Example 338, 4-[4-(7-amino-2-benzo[d]isothiazol-7-yl-furo[2,3-c]pyridin-4-yl)-pyrazol-1-yl]-piperidine-1-carboxylic acid isobutyl-amide]
- pIC50 (TAK1-TAB1 fusion protein): 6.00 to 7.00
- pIC50 (pJNK in HCT-116 cells): 6.00 to 7.00

SMILES: CC(=O)N1CCC(n2cc(-c3cnc(N)c4oc(-c5cccc6cnncc56)cc34)cn2)CC1 [Example 367, 1-(4-{4-[7-amino-2-(phthalazin-5-yl)furo[2,3-c]pyridin-4-yl]-1H-pyrazol-1-yl}piperidin-1-yl)ethanone]
- pIC50 (TAK1-TAB1 fusion protein): 6.00 to 7.00
- pIC50 (pJNK in HCT-116 cells): 6.00 to 7.00

SMILES: CNc1nc2cccc(-c3cc4c(-c5cnn([C@H]6CC[C@H](O)CC6)c5)cnc(N)c4o3)c2s1 [Example 351, trans-4-(4-{7-amino-2-[2-(methylamino)-1,3-benzothiazol-7-yl]furo[2,3-c]pyridin-4-yl}-1H-pyrazol-1-yl)cyclohexanol Trifluoroacetate (Salt)]
- pIC50 (TAK1-TAB1 fusion protein): > 7.00
- pIC50 (pJNK in HCT-116 cells): > 7.00
